Laboratory results published in ChEMBL document CHEMBL2086295, “The design, synthesis, in silico ADME profiling, antiplasmodial and antimycobacterial evaluation of new arylamino quinoline derivatives” (Eur J Med Chem, 2012).
In brackets after ≈: the same amount, converted by molar mass.

Columns and labels:
Plasmodium falciparum [1] = experiment: Antiplasmodial against chloroquine-rsistant Plasmodium falciparum K1 assessed as inhibition of [3H]hypoxanthine incorporation after 24 hrs by scintillation counting; format: functional, organism-based
Plasmodium falciparum [2] = experiment: Antiplasmodial against chloroquine-sensitive Plasmodium falciparum 3D7 assessed as inhibition of [3H]hypoxanthine incorporation after 24 hrs by scintillation counting; format: functional, organism-based
[3] = tested on: Mycobacterium tuberculosis; experiment: Antimycobacterial activity against Mycobacterium tuberculosis H37Rv ATCC 27294 after 7 days by microplate alamar blue assay; format: functional; details: for MIC90: Mycobacterium tuberculosis, H37Rv ATCC 27294, 168 h
[4] = tested on: Mycobacterium tuberculosis; experiment: Antimycobacterial activity against Mycobacterium tuberculosis H37Rv ATCC 27294 after 10 days by low oxygen recovery assay; format: functional; details: for MIC90: Mycobacterium tuberculosis, H37Rv ATCC 27294, 240 h
[5] = Kinetic solubility of the compound at pH 7.4; format: physicochemical; details: buffer, read-out: Kinetic_solubility
Plasmodium falciparum [6] = experiment: Antiplasmodial against chloroquine-rsistant Plasmodium falciparum W2 after 2 days by flow cytometry; format: functional, organism-based; details: W2, 48 h

SMILES | IC50 (Plasmodium falciparum [1]) [nM] | IC50 (Plasmodium falciparum [2]) [nM] | inhibition (INH) [3] [%] | MIC90 [3] [µM] | inhibition (INH) [4] [%] | MIC90 [4] [µM] | solubility kinetic [5] [µM] | IC50 (Plasmodium falciparum [6]) [nM]
COc1ccc2nccc(C(c3nnnn3C(C)(C)C)N(C)C)c2c1 (stereo not given) | 1310 | 1310 | 16 | > 128 | 42 | > 128 | 189 (≈ 64.5 µg/mL) | > 10000
CCN(CC)C(c1ccnc2ccc(OC)cc12)c1nnnn1C(C)(C)C (stereo not given) | 2390 | 2390 | 83 | > 128 | 94 | 123 (≈ 45.4 µg/mL) | 137 (≈ 50.4 µg/mL) | > 10000
COc1ccc2nccc(C(c3nnnn3C(C)(C)C)N3CCCC3)c2c1 (stereo not given) | 13800 | 13800 | 24 | > 128 | 30 | > 128 |  | > 10000
COc1ccc2nccc(C(c3nnnn3C(C)(C)C)N3CCCCC3)c2c1 (stereo not given) | 2630 | 647 | 98 | 92.5 (≈ 35.2 µg/mL) | 64 | > 128 | 114 (≈ 43.5 µg/mL) | > 10000
COc1ccc2nccc(C(c3nnnn3C(C)(C)C)N3CCN(C)CC3)c2c1 (stereo not given) | 7950 | 16800 | 0 | > 128 | 0 | > 128 |  | 8390
COc1ccc2nccc(C(c3nnnn3C(C)(C)C)N3CCOCC3)c2c1 (stereo not given) | 1230 | 980 | 0 | > 128 | 32 | > 128 | 179 (≈ 68.3 µg/mL) | > 10000
COc1ccc2nccc(C(c3nnn[nH]3)N3CCOCC3)c2c1 (stereo not given) | 6740 | 8620 | 0 | > 128 | 1 | > 128 | 202 (≈ 65.9 µg/mL) | > 10000
CN(C)C(c1cc(C(F)(F)F)nc2c(C(F)(F)F)cccc12)c1nnnn1C(C)(C)C (stereo not given) | 4520 |  |  | > 160 |  |  |  | 
CCN(CC)C(c1cc(C(F)(F)F)nc2c(C(F)(F)F)cccc12)c1nnnn1C(C)(C)C (stereo not given) | 2320 |  |  | > 160 |  |  |  | 
O[C@@H](c1cc(C(F)(F)F)nc2c(C(F)(F)F)cccc12)[C@H]1CCCCN1 (relative stereo) [(S,R)-MEFLOQUINE] |  |  |  | 10 (≈ 3.78 µg/mL) |  |  |  | 
NNC(=O)c1ccncc1 [ISONIAZID] |  |  | 92 | 0.23 (≈ 0.0315 µg/mL) | 64 | > 128 |  | 
NC[C@H]1O[C@H](O[C@H]2[C@H](O)[C@@H](O[C@H]3O[C@H](CO)[C@@H](O)[C@H](N)[C@H]3O)[C@H](N)C[C@@H]2N)[C@H](O)[C@@H](O)[C@@H]1O [KANAMYCIN] |  |  |  | 3.12 (≈ 1.51 µg/mL) |  |  |  | 
O=[N+]([O-])c1cn2c(n1)OC[C@@H](OCc1ccc(OC(F)(F)F)cc1)C2 [PRETOMANID] |  |  | 99 | 0.12 (≈ 0.0431 µg/mL) | 100 | 3.78 (≈ 1.36 µg/mL) |  | 
C=C[C@H]1CN2CC[C@H]1C[C@H]2[C@H](O)c1ccnc2ccc(OC)cc12 [QUININE] | 20.4 | 0.7 | 95 | 120 (≈ 38.8 µg/mL) | 98 | 122 (≈ 39.6 µg/mL) |  | 18.7
CO[C@H]1/C=C/O[C@@]2(C)Oc3c(C)c(O)c4c(O)c(c(/C=N/N5CCN(C)CC5)c(O)c4c3C2=O)NC(=O)/C(C)=C\C=C\[C@H](C)[C@H](O)[C@@H](C)[C@@H](O)[C@@H](C)[C@H](OC(C)=O)[C@@H]1C [RIFAMPIN] |  |  | 100 | 0.05 (≈ 0.0411 µg/mL) | 98 | 1.93 (≈ 1.59 µg/mL) |  | 
CN[C@@H]1[C@H](O[C@H]2[C@H](O[C@H]3[C@H](O)[C@@H](O)[C@H](N=C(N)N)[C@@H](O)[C@@H]3N=C(N)N)O[C@@H](C)[C@]2(O)C=O)O[C@@H](CO)[C@H](O)[C@H]1O [STREPTOMYCIN] |  |  |  | 0.4 (≈ 0.233 µg/mL) |  |  |  | 
